{"source": "patent US4318905A", "about": "“Nonapeptide and decapeptide agonists of luteinizing hormone releasing hormone containing heterocyclic amino acid residues” (Syntex (U.S.A.) Inc., priority 1980, dated 1982)", "origin": "cited, not measured here", "data": [{"settings": "Gly in the 6-position replaced by a D-amino acid", "values": [{"substance": "[D-Trp^6 ]LHRH", "activity relative to LH-RH": "increased activity"}, {"substance": "[D-Phe^6 ]LHRH", "activity relative to LH-RH": "increased activity"}, {"substance": "[D-Ala^6 ]LHRH", "activity relative to LH-RH": "increased activity"}]}]}
